Laboratory results published in ChEMBL document CHEMBL1201862, “PubChem BioAssay data set” (2004).
Values joined by “and” are separate entries in the source; they are usually repeats but may differ in a detail not shown here. Equal values may be shown once. Active and inactive are the calls of the source.

What was measured:
[1] = biological target: ATP-dependent translocase ABCB1 (Homo sapiens, UniProt P08183); assay: inhibition of P-gp mediated JC-1 efflux – Jurkat-DNR cells, flow cytometry, dose response (AID 1689); type: functional
Chain of ATP-dependent translocase ABCB1 (P08183 whole entry): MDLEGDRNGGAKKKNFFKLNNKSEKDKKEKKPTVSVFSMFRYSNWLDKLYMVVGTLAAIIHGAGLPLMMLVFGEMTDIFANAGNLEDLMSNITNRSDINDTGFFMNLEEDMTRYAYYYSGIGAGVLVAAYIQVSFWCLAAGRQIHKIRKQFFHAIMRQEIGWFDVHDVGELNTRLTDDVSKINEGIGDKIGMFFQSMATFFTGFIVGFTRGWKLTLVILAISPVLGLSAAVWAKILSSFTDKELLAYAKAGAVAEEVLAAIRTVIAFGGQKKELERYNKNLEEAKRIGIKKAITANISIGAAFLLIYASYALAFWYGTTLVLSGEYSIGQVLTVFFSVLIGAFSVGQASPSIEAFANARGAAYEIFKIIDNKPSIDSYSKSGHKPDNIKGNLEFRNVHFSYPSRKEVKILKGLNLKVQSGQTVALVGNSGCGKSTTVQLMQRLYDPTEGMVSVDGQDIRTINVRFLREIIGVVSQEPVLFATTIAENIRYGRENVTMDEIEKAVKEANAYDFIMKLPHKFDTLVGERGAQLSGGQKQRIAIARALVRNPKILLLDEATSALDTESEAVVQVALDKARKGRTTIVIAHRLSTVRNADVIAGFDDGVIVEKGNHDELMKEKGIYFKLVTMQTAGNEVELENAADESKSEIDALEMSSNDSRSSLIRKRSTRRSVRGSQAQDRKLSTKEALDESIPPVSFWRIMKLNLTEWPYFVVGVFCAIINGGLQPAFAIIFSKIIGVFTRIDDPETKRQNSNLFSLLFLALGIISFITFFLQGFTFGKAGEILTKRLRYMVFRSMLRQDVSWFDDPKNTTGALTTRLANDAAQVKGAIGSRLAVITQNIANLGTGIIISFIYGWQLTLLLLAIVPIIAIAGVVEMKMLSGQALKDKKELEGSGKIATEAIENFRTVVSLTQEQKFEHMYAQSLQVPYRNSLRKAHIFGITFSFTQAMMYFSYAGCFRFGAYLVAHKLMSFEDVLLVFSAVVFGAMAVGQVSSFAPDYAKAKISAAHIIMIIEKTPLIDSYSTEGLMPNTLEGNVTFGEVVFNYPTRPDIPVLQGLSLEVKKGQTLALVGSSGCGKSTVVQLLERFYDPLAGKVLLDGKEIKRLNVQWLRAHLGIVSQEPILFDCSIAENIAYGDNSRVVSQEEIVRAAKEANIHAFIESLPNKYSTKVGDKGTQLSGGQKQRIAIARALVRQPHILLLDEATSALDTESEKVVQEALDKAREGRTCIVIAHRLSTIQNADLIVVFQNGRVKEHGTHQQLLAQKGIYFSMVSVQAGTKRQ

[2] = biological target: Broad substrate specificity ATP-binding cassette transporter ABCG2 (Homo sapiens, UniProt Q9UNQ0); assay: blockers of JC-1 export by ABCG2 – Ig-MXP3 cells, flow cytometry, dose response (AID 1690); type: functional
Chain of Broad substrate specificity ATP-binding cassette transporter ABCG2 (Q9UNQ0 whole entry): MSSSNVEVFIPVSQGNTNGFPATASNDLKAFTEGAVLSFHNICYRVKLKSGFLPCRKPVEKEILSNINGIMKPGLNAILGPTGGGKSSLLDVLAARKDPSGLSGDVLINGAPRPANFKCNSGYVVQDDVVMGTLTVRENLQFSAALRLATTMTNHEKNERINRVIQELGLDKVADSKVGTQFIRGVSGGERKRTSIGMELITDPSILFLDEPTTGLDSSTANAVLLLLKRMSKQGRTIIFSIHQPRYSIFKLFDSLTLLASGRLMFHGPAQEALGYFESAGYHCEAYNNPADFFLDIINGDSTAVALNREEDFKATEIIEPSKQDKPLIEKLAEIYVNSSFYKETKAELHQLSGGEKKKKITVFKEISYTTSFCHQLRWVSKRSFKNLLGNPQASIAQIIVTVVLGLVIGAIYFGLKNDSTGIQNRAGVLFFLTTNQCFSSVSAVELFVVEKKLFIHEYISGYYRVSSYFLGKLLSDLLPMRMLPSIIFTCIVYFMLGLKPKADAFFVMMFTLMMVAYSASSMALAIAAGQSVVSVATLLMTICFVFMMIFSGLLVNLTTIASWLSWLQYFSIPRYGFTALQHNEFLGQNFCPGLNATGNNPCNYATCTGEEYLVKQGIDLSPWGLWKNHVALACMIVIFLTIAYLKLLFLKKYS

[3] = biological target: fMet-Leu-Phe receptor (Homo sapiens, UniProt P21462); assay: formyl peptide receptor binders – dose response (AID 519); type: functional
Chain of fMet-Leu-Phe receptor (P21462 whole entry): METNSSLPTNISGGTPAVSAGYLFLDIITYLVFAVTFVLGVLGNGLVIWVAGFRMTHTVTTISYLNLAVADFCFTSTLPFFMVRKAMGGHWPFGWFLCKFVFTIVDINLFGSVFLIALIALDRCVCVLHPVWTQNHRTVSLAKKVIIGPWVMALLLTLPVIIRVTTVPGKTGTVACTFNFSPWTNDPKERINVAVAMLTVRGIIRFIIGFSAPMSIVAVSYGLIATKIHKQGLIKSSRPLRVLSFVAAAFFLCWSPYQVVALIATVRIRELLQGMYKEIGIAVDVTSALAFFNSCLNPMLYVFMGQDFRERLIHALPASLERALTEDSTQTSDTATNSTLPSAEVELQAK

[4] = biological target: Cytochrome P450 2C9 (Homo sapiens, UniProt P11712)
Chain of Cytochrome P450 2C9 (P11712 whole entry): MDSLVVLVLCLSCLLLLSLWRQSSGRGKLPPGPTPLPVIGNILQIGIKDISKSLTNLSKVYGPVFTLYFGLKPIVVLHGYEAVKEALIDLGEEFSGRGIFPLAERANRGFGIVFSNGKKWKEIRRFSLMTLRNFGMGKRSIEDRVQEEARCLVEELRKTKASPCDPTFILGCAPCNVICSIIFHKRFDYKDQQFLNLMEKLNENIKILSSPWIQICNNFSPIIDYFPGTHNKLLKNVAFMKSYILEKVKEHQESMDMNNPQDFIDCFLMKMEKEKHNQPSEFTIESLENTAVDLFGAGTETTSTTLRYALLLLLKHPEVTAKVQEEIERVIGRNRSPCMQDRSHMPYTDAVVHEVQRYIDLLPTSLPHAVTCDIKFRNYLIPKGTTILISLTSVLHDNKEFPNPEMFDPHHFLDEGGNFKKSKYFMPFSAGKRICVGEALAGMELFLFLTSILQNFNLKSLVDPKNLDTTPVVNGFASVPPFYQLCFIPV

[5] = biological target: Long-chain-fatty-acid--AMP ligase FadD28 (Mycobacterium tuberculosis, UniProt P9WQ59); assay: Fluorescence polarization aasay to screen for inhibitors that compete for the binding of FadD28 to a bisubstrate Measured in Biochemical System Using Plate Reader - 2147-01_Inhibitor_Dose_CherryPick_Activity.; type: functional, Mycobacterium tuberculosis H37Rv
Chain of Long-chain-fatty-acid--AMP ligase FadD28 (P9WQ59 whole entry): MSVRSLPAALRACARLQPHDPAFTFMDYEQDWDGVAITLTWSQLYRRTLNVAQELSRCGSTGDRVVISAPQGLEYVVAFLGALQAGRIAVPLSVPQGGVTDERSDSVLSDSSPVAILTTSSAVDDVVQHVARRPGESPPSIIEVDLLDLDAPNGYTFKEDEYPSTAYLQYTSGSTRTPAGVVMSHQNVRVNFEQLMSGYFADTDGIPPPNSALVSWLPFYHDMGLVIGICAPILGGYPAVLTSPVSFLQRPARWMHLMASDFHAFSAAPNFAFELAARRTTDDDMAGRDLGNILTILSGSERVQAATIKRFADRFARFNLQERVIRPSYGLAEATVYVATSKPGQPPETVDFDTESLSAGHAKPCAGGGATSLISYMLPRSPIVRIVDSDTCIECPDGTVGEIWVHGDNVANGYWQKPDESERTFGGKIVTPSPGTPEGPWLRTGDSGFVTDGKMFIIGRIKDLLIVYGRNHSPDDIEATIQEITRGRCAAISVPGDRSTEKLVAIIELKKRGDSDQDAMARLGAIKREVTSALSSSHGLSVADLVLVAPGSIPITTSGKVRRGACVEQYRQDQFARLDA

[6] = biological target: T1, Beta-lactamase (Pseudomonas aeruginosa, UniProt Q79MP6); assay: […] counterscreen for selective VIM-2 inhibitors: dose response biochemical high throughput screening assay to identify inhibitors of IMP-1 metallo-beta-lactamase.
T1 sequence (Q79MP6 whole entry): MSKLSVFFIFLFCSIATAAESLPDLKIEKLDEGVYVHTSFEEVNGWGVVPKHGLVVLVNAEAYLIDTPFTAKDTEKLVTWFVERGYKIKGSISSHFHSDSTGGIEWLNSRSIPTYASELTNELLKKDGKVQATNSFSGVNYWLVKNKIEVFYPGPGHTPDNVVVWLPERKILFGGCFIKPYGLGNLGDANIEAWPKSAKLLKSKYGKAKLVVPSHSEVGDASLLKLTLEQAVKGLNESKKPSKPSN

[7] = biological target: Beta-lactamase (Salmonella choleraesuis (strain SC-B67), UniProt Q5J463); assay: Epi-absorbance-based counterscreen for selective VIM-2 inhibitors: dose response biochemical high throughput screening assay to identify inhibitors of TEM-1 serine-beta-lactamase.
Chain of Beta-lactamase (Salmonella choleraesuis (strain SC-B67), UniProt Q5J463) (Q5J463 whole entry): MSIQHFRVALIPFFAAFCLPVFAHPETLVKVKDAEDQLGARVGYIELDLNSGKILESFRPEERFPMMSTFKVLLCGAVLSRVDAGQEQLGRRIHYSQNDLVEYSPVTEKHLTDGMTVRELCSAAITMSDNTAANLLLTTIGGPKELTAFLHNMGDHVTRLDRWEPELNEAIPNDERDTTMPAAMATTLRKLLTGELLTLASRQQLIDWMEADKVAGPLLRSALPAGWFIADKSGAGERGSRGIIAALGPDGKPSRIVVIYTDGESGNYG

[8] = biological target: DNA dC->dU-editing enzyme APOBEC-3G (Homo sapiens, UniProt Q9HC16); assay: Dose Response confirmation of small molecule APOBEC3G DNA Deaminase Inhibitors via a fluorescence-based single-stranded DNA deaminase assay. [Related pubchem assays (depositor defined):AID493012, AID493028]; type: functional
Chain of DNA dC->dU-editing enzyme APOBEC-3G (Q9HC16 whole entry): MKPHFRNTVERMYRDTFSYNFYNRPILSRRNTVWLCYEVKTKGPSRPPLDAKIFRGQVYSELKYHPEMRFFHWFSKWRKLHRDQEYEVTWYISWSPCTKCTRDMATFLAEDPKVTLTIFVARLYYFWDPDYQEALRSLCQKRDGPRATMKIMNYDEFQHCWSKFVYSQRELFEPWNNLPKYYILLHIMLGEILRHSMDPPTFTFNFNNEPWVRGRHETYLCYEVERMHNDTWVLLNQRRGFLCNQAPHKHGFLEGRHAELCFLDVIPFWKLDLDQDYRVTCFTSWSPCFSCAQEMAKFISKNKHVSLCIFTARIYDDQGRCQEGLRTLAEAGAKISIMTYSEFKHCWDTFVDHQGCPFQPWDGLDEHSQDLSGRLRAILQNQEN

[9] = biological target: T1, Beta-lactamase; assay: inhibition of IMP-1 beta-lactamase activity – biochemical, epi-absorbance, selectivity assay for VIM-2 inhibitor project, dose response (AID 1920)
[10] = biological target: DNA dC->dU-editing enzyme APOBEC-3A (Homo sapiens, UniProt P31941); assay: A3A deaminase inhibition for selectivity – biochemical, dose response (AID 504722); type: functional
Chain of DNA dC->dU-editing enzyme APOBEC-3A (P31941 whole entry, the tested form may be a part): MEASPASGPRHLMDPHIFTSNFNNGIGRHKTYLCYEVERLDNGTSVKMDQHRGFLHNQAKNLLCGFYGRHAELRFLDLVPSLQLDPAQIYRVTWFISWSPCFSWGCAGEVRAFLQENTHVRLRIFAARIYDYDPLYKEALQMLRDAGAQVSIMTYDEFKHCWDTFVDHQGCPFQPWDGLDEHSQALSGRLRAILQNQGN

[11] = off-target signal loss in HeLa-CEM21 co-culture – HeLa F-luc CTL cells, cherry-picked, counter-screen for HIV-1 Env fusion inhibitor project, dose response (AID 652040); type: functional, cell-based;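 further: potency for signal decrease marking cytotoxic or nonspecific inhibition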
[12] = blockers of HIV-1 envelope-mediated cell-cell fusion – cherry-pick, dose response (AID 652057); type: functional, cell-based
[13] = viability loss in CEM21 cells – cell-based, plate reader, dry powder, cytotoxicity control, dose response (AID 687026); type: functional
[14] = blockers of HIV-1 ZM109 envelope-driven cell-cell fusion – HeLa effector, CEM target cells, luciferase, cherry-pick, dose response (AID 652058); type: functional, cell-based;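 further: luciferase signal from HIV-1 Env mediated cell-cell fusion of effector and target cells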
[15] = HIV-1 AD8 envelope cell-cell fusion blockers – cherry-pick, dose response (AID 652062); type: functional, cell-based;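 further: luciferase signal from cell-cell fusion driven by HIV-1 clade B AD8 Env; potency is for inhibitors of fusion seen as a drop in luminescence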
[16] = inhibition of Env-driven cell fusion – HIV entry, plate reader, dry powder, dose response (AID 687023); type: functional, cell-based
[17] = human cervical cancer cell viability loss – 24 h, plate reader, dry powder, cytotoxicity control, dose response (AID 686928); type: functional, cell-based; settings: HeLa
[18] = biological target: Matrix metalloproteinase-14 (Homo sapiens, UniProt P50281); assay: Dose Response confirmation of uHTS hits for a small molecule inhibitors of MT1-MMP activation in a fluorescence assay set 1.; type: functional
[19] = viability loss in HEK293T cells – cell-based, cherry-picks, cytotoxicity control for HIV Vif inhibitor project, dose response (AID 652208); type: functional
[20] = test system: A549; assay: viability loss in A549 cells – cell-based, plate reader, cherry-pick samples, cytotoxicity control, dose response (AID 687028); type: functional; settings: Homo sapiens
[21] = test system: BHK-21; assay: viability loss in BHK-21 cells – cell-based, plate reader, cherry-pick samples, cytotoxicity control, dose response (AID 687030); type: functional; settings: Mesocricetus auratus
[22] = biological target: NAD-dependent protein deacylase sirtuin-5, mitochondrial (Homo sapiens, UniProt Q9NXA8); assay: sirtuin-5 deacylation blockers, concentration series – biochemical, fluorescence imaging, cherry-pick, set 5, dose response (AID 720591);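 further: desuccinylation of succinyl peptide AMC substrate read as fluorescence after trypsin release; potency of inhibitors that lower fluorescence and may act on trypsin instead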
Chain of NAD-dependent protein deacylase sirtuin-5, mitochondrial (Q9NXA8 whole entry): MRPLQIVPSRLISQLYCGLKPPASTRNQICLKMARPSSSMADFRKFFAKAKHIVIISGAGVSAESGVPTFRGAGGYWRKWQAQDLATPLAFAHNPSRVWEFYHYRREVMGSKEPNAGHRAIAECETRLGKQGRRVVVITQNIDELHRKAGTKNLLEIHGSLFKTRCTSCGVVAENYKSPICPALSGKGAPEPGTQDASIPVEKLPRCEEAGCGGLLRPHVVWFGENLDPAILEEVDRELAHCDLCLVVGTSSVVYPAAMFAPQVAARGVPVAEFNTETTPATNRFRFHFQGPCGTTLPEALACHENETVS

Which results are given for `CN(C)c1ccc(P(=O)(Nc2cccc(C(F)(F)F)c2)N2CCOCC2)c(NC(=O)c2cccs2)c1` (configuration not stated)?
EC50 [1]: 0.286 µM (active); EC50 [2]: 1.21 µM (inactive)

For `Cc1ccc(C2C(C(=O)c3ccc(Cl)cc3)=C(O)C(=O)N2CC2CCCO2)o1` (configuration not stated), which Ki [3] is on record?
Its Ki is 11.6 µM (active).

What about the AC50 [4] of the same compound?
Its AC50 is 22.4 µM (inconclusive).

With `COc1ccc(OC)c(C2=NOC(C(=O)Nc3cccc(C(C)=O)c3)C2)c1` (configuration not stated) as the compound, how does the AC50 [5] read?
The AC50 was 34.6 µM (active).

Which IC50 [6] does the source give for `C=C(C)Cn1c(-c2cccs2)n[nH]c1=S` here?
The IC50 was > 59.6 µM (inactive).

And the IC50 [7]?
Its IC50 is > 59.6 µM (inactive).

And the IC50 [8]?
Its IC50 is 7.53 µM (active).

And the IC50 [9]?
The IC50 was > 59.6 µM (inactive).

And the IC50 [10]?
The IC50 was > 100 µM (inactive).

For `Cc1ccc2c(CN3CCN(S(=O)(=O)c4ccc5c(c4)OCCO5)CC3)cc(=O)oc2c1C`, which AC50 [11] is on record?
The AC50 was > 70 µM (inactive).

What about the AC50 [12] of the same compound?
The AC50 was 4.58 µM (active).

And the AC50 [13]?
The AC50 was > 70 µM (inactive).

And the AC50 [14]?
The AC50 was 0.424 µM (active).

And the AC50 [15]?
The AC50 was 4.06 µM (active).

What about the AC50 [16] of the same compound?
Its AC50 is 3.95 µM (active) and 5.68 µM (active) and 3.52 µM (active).

With `O=C(Nc1nnc(-c2ccc(Cl)cc2)o1)C1CCCCC1` as the compound, how does the AC50 [17] read?
Its AC50 is > 160 µM (inactive).

For `Nc1ccc(NC(=O)c2ccccc2)c2c1C(=O)c1ccccc1C2=O`, which IC50 [18] is on record?
Its IC50 is 19.5 µM (active).

Which AC50 [19] does the source give for `COC(=O)N1C(=O)[C@](c2ccc(Cl)cc2)(C(C)C)N1C(=O)OC` here?
Its AC50 is 18.7 µM (active).

With `COc1cc(NC(=O)c2nccn2C)cc(C(=O)Nc2cccc(C(F)(F)F)c2)c1` as the compound, how does the AC50 [20] read?
The AC50 was 19.7 µM (active).

What about the AC50 [21] of the same compound?
The AC50 was 26.2 µM (active).

With `CCCCC(=O)Nc1ccc2c(c1)nc(CCNC(=O)c1ccco1)n2C` as the compound, how does the AC50 [22] read?
Its AC50 is > 30 µM (inactive).
